Key:
[1] = tested on: Caco-2 cells; experiment: In vitro barrier assessment: ZO-1 staining and junction tortuosity of Caco-2 cells treated with glucose; assay type: cell-based; conditions: glucose plus 2-DG
Experimental: Caco-2 cells were purchased from ATCC. Cells were routinely grown in regular tissue culture medium (DMEM, 10% FCS, penicillin/streptomycin, GlutaMAX, 1 g/l glucose). For experiments, cells were seeded onto 96-well glass-bottom plates coated with fibronectin 25 μg/ml 70 000 cells/well and allowed to grow for 48 hours to form confluent monolayer before treatment with indicated concentration of glucose for indicated time period. […] Tight junctions labeling was performed with primary anti-ZO-1 mouse monoclonal antibodies (BD Transduction Laboratories) 1.25 μg/ml and secondary Alexa Fluor 488 goat anti-mouse antibodies (Invitrogen) 10 μg/ml. […] Cell images were segmented using Morphological Segmentation ImageJ plug-in and junction tortuosity was calculated as a ratio between junction length and Euclidian distance between its ends.
Hyperglycemia Reprograms Intestinal Epithelial Cells To determine whether glucose acted directly on intestinal epithelial cells to affect barrier function, an in vitro system of cultured intestinal epithelial (Caco-2) cells was used. […] Tight junction integrity was analyzed through automated high-throughput analysis of ZO-1 staining patterns. […] Global reprogramming of the epithelial transcriptome was detected in hyperglycemic mice (FIG. 41), in which more than 1,000 genes were differentially expressed compared to vehicle-treated controls (FIG. 4J). […]

[2] = tested on: Citrobacter rodentium; experiment: Citrobacter rodentium infection (bioluminescence, tissue CFU), Example 1; assay type: in vivo, mouse
Experimental: (§1) To induce hyperglycemia, streptozotocin (STZ, Sigma-Aldrich) was diluted freshly in PBS and injected i.p. at 100 mg/kg at two consecutive days. Control mice were injected with PBS. Serum glucose measurements were performed using glucose strips (Perrigo). Hyperglycemic mice were used for further experimentation 2-3 weeks after STZ injection). For continuous insulin administration, ALZET osmotic pumps were used. Pumps were implanted subcutaneously in the back of the mice for 4 weeks. Insulin was delivered at 0.25 U/day. 2-deoxyglucose (2-DG) was injected i.p. twice daily at 5 mg per injection as previously described (47). Injections were performed for 10 consecutive days. Leptin antagonist was administered daily by intraperitoneal injection of 25 mg/kg as previously described (18).
Mice were infected by oral gavage with 200 μl of an overnight culture of LB containing approximately 1×10^9 colony-forming units (CFU) of a kanamycin-resistant, luciferase-expressing derivative of C. rodentium DBS100 (ICC180) as previously described (16). For in vivo bioluminescent imaging, mice were anesthetized with Ketamine/Xylazine. Bioluminescence was quantified using an IVIS2000 instrument and Living Image software (Perkin Elmer). For ex vivo luminescence analysis, colons were resected, extensively washed from all fecal matter and immediately imaged. For CFU counts, tissues were collected, weighed and homogenized in 1 ml of sterile PBS. Tissue homogenates were serially diluted in PBS and plated on to LB kanamycin plates, incubated overnight at 37° C., and bacterial colonies were enumerated the following day, normalizing them to the tissue weight.

[3] = tested on: microbial pattern recognition receptor (PRR) ligands; experiment: Quantification of microbial products at systemic sites (PRR reporter cell lines); assay type: in vivo, mouse; conditions: STZ-treated mice given the agent (insulin 0.25 U per day; 2-DG i.p. twice daily 5 mg)
Experimental: as §1, with “(18). The following PRR reporter cell lines were obtained from Invivogen (HEK-Blue TLR and NLR reporter cell lines): TLR2, TLR3, TLR4, TLR5, TLR7, TLR9, NOD1, NOD2. Extracts from spleen, liver, and serum were homogenized and added to reporter cell lines incubated with HEK-Blue detection medium (Invivogen) according to the manufacturer's instructions.” for “(18).”

[4] = tested on: intestinal epithelial cells; experiment: RNA-sequencing of purified intestinal epithelial cells; assay type: in vivo, mouse; conditions: STZ-treated mice, 2-DG administration
Experimental: Intestinal tissue was excised from mice, thoroughly rinsed with ice-cold PBS to clean the tissue from fecal matter, and opened longitudinally. The tissue was then cut into pieces of 1 cm length and incubated in HBSS containing 2 mM EDTA and 1 mM DTT at 37° C. for 30 mins while shaking at 130 rpm. Epithelial cells were collected, filtered, centrifuged, and subsequently stained with anti-EpCAM and anti-CD45 antibodies (Biolegend) for 30 mins on ice. Cells were then washed, resuspended and sorted into lysis/binding buffer (Life Technologies) using a FACS-FUSION cell sorter (BD).
10^4 cells from each population were sorted into 80 μl of lysis/binding buffer (Life Technologies). mRNA was captured with 12 μl of Dynabeads oligo(dT) (Life Technologies), washed, and eluted at 70° C. with 10 μl of 10 mM Tris-Cl (pH 7.5). A derivation of MARS-seq was used as described (51). An average of 1 million reads was sequenced per library (Illumina NextSeq). The reads were aligned to the mouse reference genome (NCBI 37, mm9) using TopHat v2.0.10 (52) with default parameters. Expression levels were calculated and normalized using ESAT software (garberlabdotumassmeddotedu/software/esat). Duplicate reads were filtered if they aligned to the same base and had identical UMIs. […]

[5] = tested on: tight junctions of Caco2 cells; experiment: Caco2 tight junction morphology (cingulin or ZO-1 staining, tortuosity); assay type: cell-based, human
Experimental: (§2) CaCo-2 cells were purchased from ATCC. Cells were routinely grown in regular tissue culture medium (DMEM, 10% FCS, penicillin/streptomycin, GlutaMAX). For experiments with differing glucose concentrations, cells were routinely cultured in low-glucose DMEM (1 g/l glucose). Cells were seeded onto 96-well glass-bottom plates coated with either fibronectin or collagen 70 000 cells/well and allowed to grow for 24 hours to form confluent monolayer before indicated treatments.
(§3) For high resolution images of manually selected representative fields, a DeltaVision wide field fluorescent microscope (GE Healthcare) equipped with 40×UPlanFLN or 60×/1.42 PlanApo N oil objective (Olympus) was used. For multi-well plate scanning, the following automated imaging stations were used: DeltaVision microscope with plate scanning regiment, Hermes imaging station (IDEA bio-Medical) or ImagExpress microXL imaging station (Molecular Devices) equipped by 40× air objectives. In all cases in order to cover the curvature of apical surface of epithelial monolayer 5 μm thick z-stack was acquired around the tight junction plane (identified by best focus algorithm) and resulting image was generated as a maximum projection of all optical sections.
Cell images were segmented using Morphological Segmentation ImageJ plug-in and junction tortuosity was calculated as a ratio between junction length and Euclidian distance between its ends.

[6] = tested on: focal adhesions of Caco2 cells; experiment: Caco2 cell-matrix focal adhesions (paxillin staining); assay type: cell-based, human; conditions: 10 mM acetyl-proline, 1 mM putrescine, 10 mM histamine, 5 mM spermine
Experimental: as §2, §3

[7] = tested on: mice with DSS-induced colitis; conditions: putrescine oral gavage 200 mg/kg twice daily; 2% DSS in drinking water
Experimental: (§4) For putrescine treatment, mice received putrescine by oral gavage with a dose of 200 mg/kg twice daily for 10 days prior to and during DSS treatment or Citrobacter rodentium infection.

[8] = tested on: Citrobacter rodentium; assay type: in vivo, mouse; conditions: putrescine oral gavage 200 mg/kg twice daily
Experimental: as §4
A kanamycin-resistant and luciferase-expressing derivative of Citrobacter rodentium DBS100 (ICC180) was used for infection as previously described (Thaiss et al., Science. 2018 Mar. 23; 359(6382):1376-1383).
Mice were infected with 200 μl solution containing approximately 1×10^9 colony-forming units (CFU) of overnight cultured bacteria by oral gavage. Infection was monitored by enumerating stool CFU and measuring abdominal bioluminescent. For in vivo bioluminescent imaging, mice were anesthetized and bioluminescence was measured using an IVIS2000 instrument and Living Image software (Perkin Elmer). For ex vivo luminescence quantification, the whole colons were dissected, extensively washed from all luminal contents, longitudinally cut open and immediately imaged. For CFU counts, stool or tissues were collected, weighed and homogenized in sterile phosphate buffered saline (PBS−/−). Homogenates were then serially diluted in PBS−/− and plated on LB kanamycin plates, incubated overnight at 37° C. Bacterial CFUs were counted the next day, normalizing them to the stool or tissue weight.

In the case of `O=CC[C@@H](O)[C@H](O)[C@H](O)CO` [2-DG, 2-deoxyglucose], the “glucose-induced barrier aberrations in vitro” value [1] was “rescued glucose-induced barrier aberrations in vitro in a dose-dependent manner”, the “detectable pathogen load in the mesenteric lymph nodes, spleens and livers” value ([2]; C. rodentium-infected db/db mice, 2-DG treatment) was “strongly reduced” and the “bacterial growth in the intestinal lumen” value ([2]; STZ-treated C. rodentium-infected mice, 2-DG treatment) was “unaffected”. For the same compound, the “enhanced C. rodentium growth and pathogenic translocation / host defense against C. rodentium” value ([2]; STZ-treated mice given the agent (insulin 0.25 U per day; 2-DG i.p. twice daily 5 mg)) was “restored host defense against C. rodentium”, the “systemic dissemination of microbial products” value [3] was “prevented the systemic dissemination of microbial products” and the “transcriptional reprogramming of the epithelium” value [4] was “blocked transcriptional reprogramming in STZ-treated mice”.

With `NCCCCN` [putrescine] the “recovery of the TJs after washout” value ([5]; CaCo2 cells pretreated 24 hrs with disruptor, then regular culture medium for 24 hours) was “partial recovery”, the “TJ structure after disruptor treatment” value ([5]; CaCo2 cells, 24 hrs, LPS 300 ng/ml, Histamine 10 mM, putrescine 1 mM) was “pronounced TJ disruption” and the “effect on tight junctions in metabolite screen” value ([5]; Caco2 cells) was “Disruption”. For the same compound, the tight junction morphology ([5]; Caco2 cells, 10 mM acetyl-proline, 1 mM putrescine, 10 mM histamine, 5 mM spermine) was “distortion of tight junction morphology”, the focal adhesions size [6] was “increase of focal adhesions size” and the “effect in mice with DSS-induced colitis” value [7] was “disruptive effect”. The “effect in mice with C. rodentium infection” value [8] was “disruptive effect”.
